Assays:
Assay type in all cases: in vivo, SD rats
Conditions in all cases: Benzbromarone group 20 mg/kg
hyperuricemia model [1] = assay: Uric acid reducing effect: serum uric acid in high-fructose hyperuricemia model rats (uricase colorimetric method)
Description: (§1) SD rats were stratified by weight using random number table method, and each layer was divided into a normal group (10 rats), a fructose modeling group (50 rats) and a purine modeling group (24 rats) using random number table method. Tap water was administered to the normal group; a 10% (w/v) fructose solution was administered to the fructose modeling group for modeling; and for the purine modeling group, tap water was administered for drinking, 500 mg/kg of hypoxanthine + 100 mg/kg of nicotinic acid was administered by gastric perfusion according to body weight once a day, and the volume of perfusion was 10 ml/kg. The food and water consumption of rats were recorded daily, the body weights were weighed every 7 days, and blood was taken by shearing the tail tip on the next day of weighing. […] Among them, 0.5% CMC-Na was administered to the normal group and the model group by gastric perfusion, and respective drugs dissolved in 0.5% CMC-Na were administered to the other administration groups by gastric perfusion. The perfusion was performed once every morning. […] During the experiment, since there was no significant difference in blood uric acid level between the purine modeling group and the normal group from beginning to end, the modeling of the hyperuricemia model in rats was not successful, therefore, the rats were not further grouped. Table 1 Gastric perfusion dosages of rats in each group Every 7 days during the experiment, the body weights of the animals were weighed and recorded, blood was taken from the tail vein, and serum was separated by centrifugation. The uric acid (UA), urea nitrogen (BUN), creatinine (CRE), xanthine oxidase (XOD), adenosine deaminase (ADA) and guanine deaminase (GuDa) in serum were detected. On day 35 of the experiment, the 24-hour urine of the rats was collected, the urine volume was measured, the pH value was determined, and the urinary uric acid level, urinary creatinine level, and urinary urea nitrogen level were detected. After the experiment was terminated, the rats were sacrificed, and the right kidneys were taken and weighed. The specific determination method of each index was as follows. • ① Detecting serum uric acid and urinary uric acid by uricase colorimetric method: uric acid was catalyzed by uricase to produce allantoin and hydrogen peroxide (H2O2); […] A serum or urine sample was taken. […] Jaffe reaction occurred between the creatinine in the supernatant of serum from which protein was removed or the creatinine in clear urine and picric acid to produce an orange adduct. A serum or urine sample was taken. […] A serum or urine sample was taken. […] In the presence of an electron acceptor and a developer, a purple red conjugate was produced, and the activity of xanthine oxidase could be calculated according to the amount of the latter produced. A serum sample was taken. According to the operating instruction of Xanthine Oxidase Assay Kit, under the conditions of a cuvette the light path of 1 cm and a wavelength of 530 nm, double distilled water was used for zero calibration; the absorbance was determined by a UV spectrophotometer, and the activity of xanthine oxidase was obtained. • ⑤ Detecting adenosine deaminase (ADA) by enzymatic colorimetric method: adenine riboside was catalyzed by adenosine deaminase to hydrolyze and produce hypoxanthine riboside and ammonia, and the produced ammonia was developed. Therefore, the activity of serum adenosine deaminase could be calculated. A serum sample was taken. […]

[2] = Body weight of rats during the 35-day hyperuricemia experiment
Description: (§2) SD rats were stratified by weight using random number table method, and each layer was divided into a normal group (10 rats), a fructose modeling group (50 rats) and a purine modeling group (24 rats) using random number table method. Tap water was administered to the normal group; a 10% (w/v) fructose solution was administered to the fructose modeling group for modeling; and for the purine modeling group, tap water was administered for drinking, 500 mg/kg of hypoxanthine + 100 mg/kg of nicotinic acid was administered by gastric perfusion according to body weight once a day, and the volume of perfusion was 10 ml/kg. The food and water consumption of rats were recorded daily, the body weights were weighed every 7 days, and blood was taken by shearing the tail tip on the next day of weighing.
Among them, 0.5% CMC-Na was administered to the normal group and the model group by gastric perfusion, and respective drugs dissolved in 0.5% CMC-Na were administered to the other administration groups by gastric perfusion. The perfusion was performed once every morning. The dosages of administration were as follows: the dosage of benzbromarone was 20 mg/kg, the large-, medium- and small-dosages of the extract of the present disclosure were 1.9 g/kg, 0.95 g/kg, and 0.475 g/kg, respectively, the volume of administration was 15 ml/kg, and the experiment lasted for 35 days in total. During the experiment, since there was no significant difference in blood uric acid level between the purine modeling group and the normal group from beginning to end, the modeling of the hyperuricemia model in rats was not successful, therefore, the rats were not further grouped. Table 1 Gastric perfusion dosages of rats in each group
(§3) Every 7 days during the experiment, the body weights of the animals were weighed and recorded, blood was taken from the tail vein, and serum was separated by centrifugation. The uric acid (UA), urea nitrogen (BUN), creatinine (CRE), xanthine oxidase (XOD), adenosine deaminase (ADA) and guanine deaminase (GuDa) in serum were detected. On day 35 of the experiment, the 24-hour urine of the rats was collected, the urine volume was measured, the pH value was determined, and the urinary uric acid level, urinary creatinine level, and urinary urea nitrogen level were detected. After the experiment was terminated, the rats were sacrificed, and the right kidneys were taken and weighed.

hyperuricemia model [3] = assay: Serum urea nitrogen (urease method) and serum creatinine (picric acid method) in hyperuricemia model rats
Description: as §1

[4] = system: adenosine deaminase (ADA); assay: Serum adenosine deaminase activity in hyperuricemia model rats (enzymatic colorimetric method)
Description: as §2, with “weighing. […] Table 1 Gastric perfusion dosages of rats in each group Every 7 days during the experiment, the body weights of the animals were weighed and recorded, blood was taken from the tail vein, and serum was separated by centrifugation. The uric acid (UA), urea nitrogen (BUN), creatinine (CRE), xanthine oxidase (XOD), adenosine deaminase (ADA) and guanine deaminase (GuDa) in serum were detected. […] In the presence of an electron acceptor and a developer, a purple red conjugate was produced, and the activity of xanthine oxidase could be calculated according to the amount of the latter produced. […]” for “weighing.”

xanthine oxidase (XOD) = assay: Serum xanthine oxidase activity in hyperuricemia model rats (enzymatic colorimetric method)
Description: as §2, with “weighing. […] Table 1 Gastric perfusion dosages of rats in each group Every 7 days during the experiment, the body weights of the animals were weighed and recorded, blood was taken from the tail vein, and serum was separated by centrifugation. The uric acid (UA), urea nitrogen (BUN), creatinine (CRE), xanthine oxidase (XOD), adenosine deaminase (ADA) and guanine deaminase (GuDa) in serum were detected. […] In the presence of an electron acceptor and a developer, a purple red conjugate was produced, and the activity of xanthine oxidase could be calculated according to the amount of the latter produced. […]” for “weighing.”

guanine deaminase (GuDa) = assay: Serum guanine deaminase activity in hyperuricemia model rats (single enzyme reagent method)
Description: SD rats were stratified by weight using random number table method, and each layer was divided into a normal group (10 rats), a fructose modeling group (50 rats) and a purine modeling group (24 rats) using random number table method. Tap water was administered to the normal group; a 10% (w/v) fructose solution was administered to the fructose modeling group for modeling; and for the purine modeling group, tap water was administered for drinking, 500 mg/kg of hypoxanthine + 100 mg/kg of nicotinic acid was administered by gastric perfusion according to body weight once a day, and the volume of perfusion was 10 ml/kg. The food and water consumption of rats were recorded daily, the body weights were weighed every 7 days, and blood was taken by shearing the tail tip on the next day of weighing. […] Among them, 0.5% CMC-Na was administered to the normal group and the model group by gastric perfusion, and respective drugs dissolved in 0.5% CMC-Na were administered to the other administration groups by gastric perfusion. The perfusion was performed once every morning. […] Table 1 Gastric perfusion dosages of rats in each group Every 7 days during the experiment, the body weights of the animals were weighed and recorded, blood was taken from the tail vein, and serum was separated by centrifugation. The uric acid (UA), urea nitrogen (BUN), creatinine (CRE), xanthine oxidase (XOD), adenosine deaminase (ADA) and guanine deaminase (GuDa) in serum were detected. On day 35 of the experiment, the 24-hour urine of the rats was collected, the urine volume was measured, the pH value was determined, and the urinary uric acid level, urinary creatinine level, and urinary urea nitrogen level were detected. […] In the presence of an electron acceptor and a developer, a purple red conjugate was produced, and the activity of xanthine oxidase could be calculated according to the amount of the latter produced. […] Therefore, the activity of serum adenosine deaminase could be calculated. […]

hyperuricemia model [5] = assay: 24-hour urine indices on day 35 in hyperuricemia model rats (volume, pH, uric acid, creatinine, urea nitrogen, clearances); set-up: Uric acid clearance / Creatinine clearance: unit not given here
Description: as §1

[6] = Right kidney weight of rats on day 35
Description: as §2, with “weighing. […]” for “weighing.”
as §3, with “After the experiment was terminated, the rats were sacrificed, and the right kidneys were taken and weighed.” left out

## CCc1oc2ccccc2c1C(=O)c1cc(Br)c(O)c(Br)c1 [Benzbromarone, benzbromarone]
Hyperuricemia model [1]; Day 0, modeling period
  serum uric acid level: 75.83 ± 38.77 µmol/L
Hyperuricemia model [1]; Day 7, modeling period
  serum uric acid level: 94.75 ± 25.26 µmol/L
Hyperuricemia model [1]; Day 14, modeling period
  serum uric acid level: 65.57±27.48^Δ µmol/L
Hyperuricemia model [1]; Day 14, modeling period, listed as benzbromarone
  serum uric acid level: significant decrease
Hyperuricemia model [1]; Day 21, administration period
  serum uric acid level: 68.45 ± 22.20 µmol/L
Hyperuricemia model [1]; Day 28, administration period
  serum uric acid level: 79.65±24.68^Δ µmol/L
Hyperuricemia model [1]; Day 28, administration period, listed as benzbromarone
  serum uric acid level: significant decrease
Hyperuricemia model [1]; Day 35, administration period
  serum uric acid level: 85.66±18.37^Δ µmol/L
Hyperuricemia model [1]; Day 35, administration period, listed as benzbromarone
  serum uric acid level: significant decrease
[2]; Day 0, modeling period
  body weight: 243.40 ± 7.63 g
[2]; Day 7, modeling period
  body weight: 325.46 ± 15.10 g
[2]; Day 14, modeling period
  body weight: 365.30 ± 20.19 g
[2]; Day 21, administration period
  body weight: 391.83 ± 19.39 g
[2]; Day 28, administration period
  body weight: 425.86 ± 22.33 g
[2]; Day 35, administration period
  body weight: 433.88 ± 27.07 g
Hyperuricemia model [3]; Day 21
  Serum creatinine: 99.21 ± 17.50 µmol/L
  Serum urea nitrogen: 5.73 ± 1.02 mM
Hyperuricemia model [3]; Day 35
  Serum creatinine: 74.54±25.76^Δ µmol/L
  Serum urea nitrogen: 6.27 ± 1.62 mM
Hyperuricemia model [3]; Day 35, listed as benzbromarone
  Serum creatinine: significant decrease
[4]; Day 21
  serum adenosine deaminase level: 54.22 ± 8.72 U/ml
[4]; Day 35
  serum adenosine deaminase level: 97.69 ± 15.32 U/ml
Xanthine oxidase (XOD); Day 21
  serum xanthine oxidase level: 28.66 ± 3.75 U/L
Xanthine oxidase (XOD); Day 35
  serum xanthine oxidase level: 20.61 ± 2.67 U/L
Guanine deaminase (GuDa); Day 21
  serum guanine deaminase activity: 29.46 ± 3.57^Δ U/L
Guanine deaminase (GuDa); Day 21, listed as benzbromarone
  serum guanine deaminase activity: significant decrease
Guanine deaminase (GuDa); Day 35
  serum guanine deaminase activity: 11.46 ± 4.83 U/L
Hyperuricemia model [5]
  Creatinine clearance: 1.67 ± 1.18
  Uric acid clearance: 0.155 ± 0.047
Hyperuricemia model [5]; Day 35
  24-hour Urine volume: 117.80 ± 31.17 mL
  urinary pH: 6.70 ± 0.71
Hyperuricemia model [5]; day 35
  UBUN (concentration of urinary urea nitrogen): 156.36 ± 133.40 mmol/L
  UCR (concentration of urinary creatinine): 1256.25 ± 332.40 µmol/L
  UUA (concentration of urinary uric acid): 173.57 ± 56.65 µmol/L
[6]
  right kidney Weight: 1.43 ± 0.10^ΔΔ g
